Measurements: patent US20250145594A1, “MODULATORS OF THE INTEGRATED STRESS PATHWAY” (Calico Life Sciences LLC, priority 2020, published 2025)

Tested on: ATF4 luciferase reporter in HEK293T cells
Experiment: ATF4-Luc assay (in vitro model of VWMD)
Type: cell-based, human
Details: Homo sapiens, HEK-293T, 7 h, HEK293T cells carrying the ATF4 luciferase reporter, 1 μg/mL tunicamycin, One Glo luminescence
How it was run: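 Tunicamycin (1 μg/mL) stress with co-added compound for 7 hours in HEK293T cells stably carrying an ATF4 5′-UTR–luciferase reporter. EC50 values come from the luminescent signal (One Glo).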

| Compound | EC50 |
| --- | --- |
| O=C(NC12CC(n3cc(-c4ccc(C(F)(F)F)cn4)cn3)(C1)C2)[C@H]1C[C@@H](O)c2cc(F)c(F)cc2O1 [Compound 553, (2R,4R)-6,7-difluoro-4-hydroxy-N-(3-{4-[5-(trifluoromethyl)pyridin-2-yl]-1H-pyrazol-1-yl}bicyclo[1.1.1]pentan-1-yl)-3,4-dihydro-2H-1-benzopyran-2-carboxamide] | < 10 nM |
| COc1ccc2nn(C34CC(NC(=O)C5CNc6cc(C(F)(F)F)c(F)cc6O5)(C3)C4)cc2n1 (stereo not shown) [Compound 654, 7-fluoro-N-[3-(5-methoxy-2H-pyrazolo[4,3-b]pyridin-2-yl)bicyclo[1.1.1]pentan-1-yl]-6-(trifluoromethyl)-3,4-dihydro-2H-1,4-benzoxazine-2-carboxamide] | 10 to 50 nM |
| O=C(N[C@H]1CC[C@H](n2cc(OCCOC(F)(F)F)cn2)CC1)[C@H]1C[C@@H](O)c2cc(F)c(F)cc2O1 [Compound 638, (2R,4R)-6,7-difluoro-4-hydroxy-N-[(1r,4R)-4-{4-[2-(trifluoromethoxy)ethoxy]-1H-pyrazol-1-yl}cyclohexyl]-3,4-dihydro-2H-1-benzopyran-2-carboxamide] | < 10 nM |
| COc1cc2cn(C34CC(NC(=O)[C@H]5C[C@@H](O)c6cc(Cl)c(F)cc6O5)(C3)C4)nc2cn1 [Compound 498, (2R,4R)-6-chloro-7-fluoro-4-hydroxy-N-[3-(5-methoxy-2H-pyrazolo[3,4-c]pyridin-2-yl)bicyclo[1.1.1]pentan-1-yl]-3,4-dihydro-2H-1-benzopyran-2-carboxamide] | 10 to 50 nM |
| O=C(NC12CC(n3cnc(C(=O)N4CC[C@@H](OC(F)(F)F)C4)c3)(C1)C2)[C@H]1C[C@@H](O)c2cc(Cl)ccc2O1 [Compound 321, (2R,4R)-6-chloro-4-hydroxy-N-(3-{4-[(3R)-3-(trifluoromethoxy)pyrrolidine-1-carbonyl]-1H-imidazol-1-yl}bicyclo[1.1.1]pentan-1-yl)-3,4-dihydro-2H-1-benzopyran-2-carboxamide] | 10 to 50 nM |
| O=C(COc1ccc(C(F)(F)F)cc1)NC12CC(n3cc(C(=O)N4CC[C@H](OC(F)(F)F)C4)cn3)(C1)C2 [Compound 604, N-(3-{4-[(3S)-3-(trifluoromethoxy)pyrrolidine-1-carbonyl]-1H-pyrazol-1-yl}bicyclo[1.1.1]pentan-1-yl)-2-[4-(trifluoromethyl)phenoxy]acetamide] | < 10 nM |
| O=C(NC12CC(c3ccc(C(=O)N4CC(COC(F)(F)F)C4)nc3)(C1)C2)[C@H]1C[C@@H](O)c2cc(Cl)ccc2O1 [Compound 537, (2R,4R)-6-chloro-4-hydroxy-N-[3-(6-{3-[(trifluoromethoxy)methyl]azetidine-1-carbonyl}pyridin-3-yl)bicyclo[1.1.1]pentan-1-yl]-3,4-dihydro-2H-1-benzopyran-2-carboxamide] | < 10 nM |
| O=C(NC12CC(n3cc(N4CC[C@@H](OC(F)(F)F)C4)cn3)(C1)C2)[C@H]1C[C@@H](O)c2cc(Cl)ccc2O1 [Compound 356, (2R,4R)-6-chloro-4-hydroxy-N-(3-{4-[(3R)-3-(trifluoromethoxy)pyrrolidin-1-yl]-1H-pyrazol-1-yl}bicyclo[1.1.1]pentan-1-yl)-3,4-dihydro-2H-1-benzopyran-2-carboxamide] | < 10 nM |
| CN(CCCOC(F)(F)F)c1cnn(C23CC(NC(=O)[C@H]4C[C@@H](O)c5cc(Cl)ccc5O4)(C2)C3)c1 [Compound 430, (2R,4R)-6-chloro-4-hydroxy-N-[3-(4-{methyl[3-(trifluoromethoxy)propyl]amino}-1H-pyrazol-1-yl)bicyclo[1.1.1]pentan-1-yl]-3,4-dihydro-2H-1-benzopyran-2-carboxamide] | 10 to 50 nM |
| O=C(NC12CC(n3cc(-c4ccc(OC(F)(F)F)nc4)cn3)(C1)C2)[C@H]1C[C@@H](O)c2cc(Cl)ccc2O1 [Compound 350, (2R,4R)-6-chloro-4-hydroxy-N-(3-{4-[6-(trifluoromethoxy)pyridin-3-yl]-1H-pyrazol-1-yl}bicyclo[1.1.1]pentan-1-yl)-3,4-dihydro-2H-1-benzopyran-2-carboxamide] | < 10 nM |
| O=C(NC12CC(n3cc(OCCCOC(F)(F)F)cn3)(C1)C2)[C@H]1C[C@H](O)c2cc(C(F)(F)F)c(F)cc2O1 [Compound 636, (2R,4S)-7-fluoro-4-hydroxy-N-(3-{4-[3-(trifluoromethoxy)propoxy]-1H-pyrazol-1-yl}bicyclo[1.1.1]pentan-1-yl)-6-(trifluoromethyl)-3,4-dihydro-2H-1-benzopyran-2-carboxamide] | < 10 nM |
| O=C(CO[C@H]1C[C@@H](OC(F)(F)F)C1)NC12CC(NC(=O)[C@H]3C[C@@H](O)c4cc(Cl)c(F)cc4O3)(C1)C2 [Compound 461, (2R,4R)-6-chloro-7-fluoro-4-hydroxy-N-[3-(2-{[(1s,3S)-3-(trifluoromethoxy)cyclobutyl]oxy}acetamido)bicyclo[1.1.1]pentan-1-yl]-3,4-dihydro-2H-1-benzopyran-2-carboxamide] | < 10 nM |
| O=C(CO[C@H]1C[C@@H](OC(F)(F)F)C1)NC12CC(NC(=O)[C@H]3C[C@@H](O)c4cc(C(F)(F)F)c(F)cc4O3)(C1)C2 [Compound 644, (2R,4R)-7-fluoro-4-hydroxy-N-[3-(2-{[(1s,3S)-3-(trifluoromethoxy)cyclobutyl]oxy}acetamido)bicyclo[1.1.1]pentan-1-yl]-6-(trifluoromethyl)-3,4-dihydro-2H-1-benzopyran-2-carboxamide] | < 10 nM |
| O=C(NC12CC(n3cc(-c4ccc(C(F)(F)F)cn4)cn3)(C1)C2)[C@H]1C[C@@H](O)c2cc(C(F)(F)F)ccc2O1 [Compound 354, (2R,4R)-4-hydroxy-6-(trifluoromethyl)-N-(3-{4-[5-(trifluoromethyl)pyridin-2-yl]-1H-pyrazol-1-yl}bicyclo[1.1.1]pentan-1-yl)-3,4-dihydro-2H-1-benzopyran-2-carboxamide] | < 10 nM |
| O=C(NC12CC(n3cc(-c4cnn(CC(F)(F)F)c4)cn3)(C1)C2)[C@H]1C[C@@H](O)c2cc(Cl)c(F)cc2O1 [Compound 564, (2R,4R)-6-chloro-7-fluoro-4-hydroxy-N-{3-[1′-(2,2,2-trifluoroethyl)-1H,1′H-[4,4′-bipyrazol]-1-yl]bicyclo[1.1.1]pentan-1-yl}-3,4-dihydro-2H-1-benzopyran-2-carboxamide] | < 10 nM |
| COCc1ccc2nn(C34CC(NC(=O)[C@H]5C[C@@H](O)c6cc(Cl)ccc6O5)(C3)C4)cc2c1 [Compound 510, (2R,4R)-6-chloro-4-hydroxy-N-{3-[5-(methoxymethyl)-2H-indazol-2-yl]bicyclo[1.1.1]pentan-1-yl}-3,4-dihydro-2H-1-benzopyran-2-carboxamide] | 10 to 50 nM |
| O=C(NC12CC(OCC(=O)N3CC(OC(F)(F)F)C3)(C1)C2)[C@H]1C[C@@H](O)c2cc(Cl)ccc2O1 [Compound 333, (2R,4R)-6-chloro-4-hydroxy-N-(3-{2-oxo-2-[3-(trifluoromethoxy)azetidin-1-yl]ethoxy}bicyclo[1.1.1]pentan-1-yl)-3,4-dihydro-2H-1-benzopyran-2-carboxamide] | 50 to 250 nM |
| O=C(NC12CC(n3cc(-c4ccc(OC(F)(F)F)cn4)cn3)(C1)C2)[C@H]1C[C@@H](O)c2cc(F)ccc2O1 (single isomer, unassigned) [Compound 475] | < 10 nM |
| O=C(NC12CC(n3cnc(C(=O)N4CC[C@H](OC(F)(F)F)C4)c3)(C1)C2)[C@H]1C[C@@H](O)c2cc(Cl)ccc2O1 [Compound 386, (2R,4R)-6-chloro-4-hydroxy-N-(3-{4-[(3S)-3-(trifluoromethoxy)pyrrolidine-1-carbonyl]-1H-imidazol-1-yl}bicyclo[1.1.1]pentan-1-yl)-3,4-dihydro-2H-1-benzopyran-2-carboxamide] | < 10 nM |
| O=C(NC12CC(n3cc([C@@H]4CC[C@H](OC(F)(F)F)C4)nn3)(C1)C2)[C@H]1C[C@@H](O)c2cc(Cl)ccc2O1 (mixture of isomers) [Compound 539, (2R,4R)-6-chloro-4-hydroxy-N-(3-{4-[(1RS,3SR)-3-(trifluoromethoxy)cyclopentyl]-1H-1,2,3-triazol-1-yl}bicyclo[1.1.1]pentan-1-yl)-3,4-dihydro-2H-1-benzopyran-2-carboxamide] | 10 to 50 nM |
| Cc1ccc(-c2cnn(C34CC(NC(=O)[C@H]5C[C@@H](O)c6cc(C(F)(F)F)ccc6O5)(C3)C4)c2)nc1 [Compound 555, (2R,4R)-4-hydroxy-N-{3-[4-(5-methylpyridin-2-yl)-1H-pyrazol-1-yl]bicyclo[1.1.1]pentan-1-yl}-6-(trifluoromethyl)-3,4-dihydro-2H-1-benzopyran-2-carboxamide] | < 10 nM |
| O=C(NC12CC(n3cc(-c4ccc(OC(F)(F)F)cn4)cn3)(C1)C2)[C@H]1C[C@H](O)c2cc(C(F)(F)F)ccc2O1 [Compound 551, (2R,4S)-4-hydroxy-N-(3-{4-[5-(trifluoromethoxy)pyridin-2-yl]-1H-pyrazol-1-yl}bicyclo[1.1.1]pentan-1-yl)-6-(trifluoromethyl)-3,4-dihydro-2H-1-benzopyran-2-carboxamide] | < 10 nM |
| O=C(NC12CC(n3cc(C[C@H]4C[C@H](OC(F)(F)F)C4)cn3)(C1)C2)[C@H]1C[C@@H](O)c2cc(Cl)ccc2O1 [Compound 529, (2R,4R)-6-chloro-4-hydroxy-N-[3-(4-{[(1r,3S)-3-(trifluoromethoxy)cyclobutyl]methyl}-1H-pyrazol-1-yl)bicyclo[1.1.1]pentan-1-yl]-3,4-dihydro-2H-1-benzopyran-2-carboxamide] | 10 to 50 nM |
| O=C(NC12CC(n3cc(-c4ccc(OC(F)F)cn4)cn3)(C1)C2)[C@H]1C[C@@H](O)c2cc(Cl)c(F)cc2O1 [Compound 576, (2R,4R)-6-chloro-N-(3-{4-[5-(difluoromethoxy)pyridin-2-yl]-1H-pyrazol-1-yl}bicyclo[1.1.1]pentan-1-yl)-7-fluoro-4-hydroxy-3,4-dihydro-2H-1-benzopyran-2-carboxamide] | < 10 nM |
| O=C(NC12CC(n3cc(N4CC[C@@H](OC(F)F)C4)cn3)(C1)C2)[C@H]1C[C@@H](O)c2cc(Cl)ccc2O1 [Compound 318, (2R,4R)-6-chloro-N-(3-{4-[(3R)-3-(difluoromethoxy)pyrrolidin-1-yl]-1H-pyrazol-1-yl}bicyclo[1.1.1]pentan-1-yl)-4-hydroxy-3,4-dihydro-2H-1-benzopyran-2-carboxamide] | 50 to 250 nM |
